Test results: US20180369203A1, “METHODS OF TREATING CANCER BY ADMINISTERING A MEK INHIBITOR IN COMBINATION WITH A PROTEASOME INHIBITOR” (The Jackson Laboratory, priority 2015, published 2018)

Assays:
A2058 cells [1] = assay: Viable A2058 cells by CellTiter Blue with amyloid blockers plus inhibitors; format: cell-based, human; details: 10 μM ThT pre-incubation 6 hr, then inhibitors 24 hr
Description: (§1) FIGS. 5A-Y show MEK and proteasome inhibition provoke protein aggregation and amyloidogenesis. (A-B) WM115 cells treated with 20 nM AZD6244, 100 nM Bortezomib, or both for 24 hr were stained with Lys48-specific ubiquitin antibodies. Arrowheads mark ubiquitin-positive aggregates. Scale bar: 10 μm. Amounts of aggregates per cell were quantitated using ImageJ (median, n≥100, ANOVA). (C-F) Following transfection with polyQ79 plasmids alone or with both polyQ79 and HSF1^S326D plasmids for one day, HEK293T cells were treated with inhibitors as described in (A-B). Cells were either analyzed for aggregate size or stained with 10 μM ThT. (G) Treated tumor cell lines were stained with 10 μM ThT. Geometric means were used to calculate fold changes in ThT fluorescence intensity and the log 2(FC) values were presented as a heat map. […] Following treatments, AOs were quantitated by ELISA using A11 antibodies (mean±SD, n=3, ANOVA). (I) Intrinsic AOs were detected in human tumor cell lines (mean±SD, n=3, ANOVA). […] Amyloids were quantitated by ELISA (mean±SD, n=3, Student's t-test). […] AF formation was monitored by ThT binding (mean±SD, n=3, ANOVA). […] Amyloids were quantitated (mean±SD, n=3, Student's t-test). […] Viable cells were quantitated by CellTiter® blue (mean±SD, n=6, Student's t-test). […] Viable cells were quantitated (mean±SD, n=6, ANOVA). […]
This figure is related to FIG. 5. […] (C) Quantitation of protein aggregate size. […]

A2058 cells [2] = assay: Amyloid quantitation by ELISA in A2058 cells pre-incubated with ThT; format: cell-based, human; details: 10 μM ThT pre-incubation 6 hr, then inhibitors 24 hr
Description: as §1
To quantitate amyloid fibrils, detergent-insoluble proteins were extracted. […]

Compound: Cc1ccc2c(c1)sc(-c1ccc(N(C)C)cc1)[n+]2C.[Cl-] [ThT, Thioflavin T]
- improvement of cellular growth and survival (A2058 cells [1]): 50%
- amyloid induction by inhibitors (A2058 cells [2]): suppressed
